Test system: patients having hormone refractory prostate cancer (HRPCa)
Assay: Health-related quality-adjusted time-to-progression (QATTP) of disease, Kaplan-Meier product limit analysis, randomized placebo-controlled study
Format: in vivo, human
Protocol: The health-related QATTP of disease model for this invention expresses progression-free time as an equally preferable amount of time spent in full health. This is achieved by using patient-reported health-related QoL, as measured for the duration of observation or progression-free interval, to weight progression-free time. […] Patients received treatment with 10 mg (N=89) or 2.5 mg (N=95) of atrasentan or placebo (N=104) until experiencing a clinical event indicative of disease progression such as palliative opiate treatment of new bone or visceral pain, palliative radiation treatment of new bone pain, or new tumor growth symptoms requiring intervention or treatment with chemotherapy. Patient-reported health-related QoL data were collected with the EORTC QLQ-30 and the FACT-G and FACT-P, both of which were administered at baseline, at six week intervals and at each patient's final visit. The results from the 10 mg and 2.5 mg treatment groups are reported relative to the placebo group. A patient's transformed domain score and total score from both the EORTC QLQ-30 and FACT were used to weight the time-to-progression outcome data. Transformed domain scores ranged between 0 and 1, so the reported health-related QATTP of disease outcome was never larger than the actual time-to-progression. Each patient's health-related QATTP of disease was computed as the sum of the health-related QoL weights multiplied by the duration for which that patient experienced that health-related QoL. If a patient experienced a clinical event between two health-related QoL assessments, the set of health-related QoL domain scores immediately prior to the event were carried forward to the time of the clinical event. The mean and median health-related QATTP of disease outcomes were then estimated using Kaplan-Meier product limit methodology (Journal of the American Statistical Association, vol. 53, 1958, pp 457-481). The area under a Kaplan-Meier survival curve conveys an estimated mean health-related QATTP of disease. This analysis was applied to both intent-to-treat and per protocol population data. All health-related QATTP of disease comparisons between atrasentan and placebo treatment groups were based on a log-rank test with statistical significance at an α of 0.05. Results of the Kaplan-Meier product limit survival method analysis are reported in TABLE 2 (Intent to Treat) and TABLE 3 (Per Protocol Population). Mean and median health-related QATTP of disease are shown by treatment group. Log-rank tests comparing the differences between treatment groups are also reported.

[1] = EORTC Physical Functioning, 10 mg, intent to treat
[2] = EORTC Physical Functioning, 10 mg, per protocol
[3] = EORTC Role Functioning, 2.5 mg, intent to treat
[4] = EORTC Role Functioning, 2.5 mg, per protocol
[5] = EORTC Role Functioning, 10 mg, intent to treat
[6] = EORTC Role Functioning, 10 mg, per protocol
[7] = EORTC Sleep Disturbance, 2.5 mg, intent to treat
[8] = EORTC Sleep Disturbance, 2.5 mg, per protocol
[9] = EORTC Sleep Disturbance, 10 mg, intent to treat
[10] = EORTC Sleep Disturbance, 10 mg, per protocol
[11] = EORTC Social Functioning, 2.5 mg, intent to treat
[12] = EORTC Social Functioning, 2.5 mg, per protocol
[13] = EORTC Social Functioning, 10 mg, intent to treat
[14] = EORTC Social Functioning, 10 mg, per protocol
[15] = FACT Emotional Well Being, 2.5 mg, intent to treat
[16] = FACT Emotional Well Being, 2.5 mg, per protocol
[17] = FACT Emotional Well Being, 10 mg, intent to treat
[18] = FACT Emotional Well Being, 10 mg, per protocol
[19] = FACT Functional Well Being, 2.5 mg, intent to treat
[20] = FACT Functional Well Being, 2.5 mg, per protocol
[21] = FACT Functional Well Being, 10 mg, intent to treat
[22] = FACT Functional Well Being, 10 mg, per protocol
[23] = FACT Physical Well Being, 2.5 mg, intent to treat
[24] = FACT Physical Well Being, 2.5 mg, per protocol
[25] = FACT Physical Well Being, 10 mg, intent to treat
[26] = FACT Physical Well Being, 10 mg, per protocol
[27] = FACT Social/Family Well Being, 2.5 mg, intent to treat
[28] = FACT Social/Family Well Being, 2.5 mg, per protocol
[29] = FACT Social/Family Well Being, 10 mg, intent to treat
[30] = FACT Social/Family Well Being, 10 mg, per protocol
[31] = FACT Total, 2.5 mg, intent to treat
[32] = FACT Total, 2.5 mg, per protocol
[33] = FACT Total, 10 mg, intent to treat
[34] = FACT Total, 10 mg, per protocol
[35] = FACT-G, 2.5 mg, intent to treat
[36] = FACT-P, 2.5 mg, intent to treat

## CCCCN(CCCC)C(=O)CN1C[C@H](c2ccc3c(c2)OCO3)[C@@H](C(=O)O)[C@@H]1c1ccc(OC)cc1 [atrasentan, (2R,3R,4S)-2-(4-methoxyphenyl)-4-(1,3-benzodioxol-5-yl)-1-(((N,N-dibutylamino)carbonyl)methyl)pyrrolidine-3-carboxylic acid]
EORTC Physical Functioning, 2.5 mg, per protocol
  QATTP of Disease Median: 124 days
[1]
  QATTP of Disease Mean: 164 days
  QATTP of Disease Median: 119 days
[2]
  QATTP of Disease Mean: 168 days
  QATTP of Disease Median: 127 days
[3]
  QATTP of Disease Mean: 176 days
  QATTP of Disease Median: 128 days
[4]
  QATTP of Disease Mean: 185 days
  QATTP of Disease Median: 142 days
[5]
  QATTP of Disease Mean: 180 days
  QATTP of Disease Median: 123 days
[6]
  QATTP of Disease Mean: 187 days
  QATTP of Disease Median: 128 days
[7]
  QATTP of Disease Mean: 172 days
  QATTP of Disease Median: 127 days
[8]
  QATTP of Disease Mean: 179 days
  QATTP of Disease Median: 137 days
[9]
  QATTP of Disease Mean: 158 days
  QATTP of Disease Median: 123 days
[10]
  QATTP of Disease Mean: 162 days
  QATTP of Disease Median: 127 days
[11]
  QATTP of Disease Mean: 184 days
  QATTP of Disease Median: 142 days
[12]
  QATTP of Disease Mean: 192 days
  QATTP of Disease Median: 156 days
[13]
  QATTP of Disease Mean: 190 days
  QATTP of Disease Median: 135 days
[14]
  QATTP of Disease Mean: 196 days
  QATTP of Disease Median: 141 days
[15]
  QATTP of Disease Mean: 180 days
  QATTP of Disease Median: 133 days
[16]
  QATTP of Disease Mean: 188 days
  QATTP of Disease Median: 147 days
[17]
  QATTP of Disease Mean: 163 days
  QATTP of Disease Median: 127 days
[18]
  QATTP of Disease Mean: 168 days
  QATTP of Disease Median: 131 days
[19]
  QATTP of Disease Mean: 161 days
  QATTP of Disease Median: 111 days
[20]
  QATTP of Disease Mean: 168 days
  QATTP of Disease Median: 111 days
[21]
  QATTP of Disease Mean: 140 days
  QATTP of Disease Median: 98 days
[22]
  QATTP of Disease Mean: 144 days
  QATTP of Disease Median: 113 days
[23]
  QATTP of Disease Mean: 181 days
  QATTP of Disease Median: 135 days
[24]
  QATTP of Disease Mean: 191 days
  QATTP of Disease Median: 148 days
[25]
  QATTP of Disease Mean: 184 days
  QATTP of Disease Median: 127 days
[26]
  QATTP of Disease Mean: 190 days
  QATTP of Disease Median: 130 days
[27]
  QATTP of Disease Mean: 160 days
  QATTP of Disease Median: 126 days
[28]
  QATTP of Disease Mean: 169 days
  QATTP of Disease Median: 143 days
[29]
  QATTP of Disease Mean: 147 days
  QATTP of Disease Median: 121 days
[30]
  QATTP of Disease Mean: 151 days
  QATTP of Disease Median: 126 days
[31]
  QATTP of Disease Mean: 166 days
  QATTP of Disease Median: 125 days
[32]
  QATTP of Disease Mean: 174 days
  QATTP of Disease Median: 135 days
[33]
  QATTP of Disease Mean: 152 days
  QATTP of Disease Median: 117 days
[34]
  QATTP of Disease Mean: 157 days
  QATTP of Disease Median: 127 days
[35]
  QATTP of Disease Mean: 172 days
  QATTP of Disease Median: 129 days
FACT-G, 2.5 mg, per protocol
  QATTP of Disease Mean: 180 days
  QATTP of Disease Median: 143 days
FACT-G, 10 mg, intent to treat
  QATTP of Disease Mean: 160 days
  QATTP of Disease Median: 123 days
FACT-G, 10 mg, per protocol
  QATTP of Disease Mean: 165 days
  QATTP of Disease Median: 130 days
[36]
  QATTP of Disease Mean: 152 days
  QATTP of Disease Median: 115 days
FACT-P, 2.5 mg, per protocol
  QATTP of Disease Mean: 160 days
  QATTP of Disease Median: 117 days
FACT-P, 10 mg, intent to treat
  QATTP of Disease Mean: 135 days
  QATTP of Disease Median: 107 days
FACT-P, 10 mg, per protocol
  QATTP of Disease Mean: 139 days
  QATTP of Disease Median: 111 days
Both 10 mg and 2.5 mg, per protocol population, after adjusting for health-related QoL effects
  health-related QATTP over placebo: longer
Data in TABLE 3, both 10 mg and 2.5 mg treatment groups
  mean health-related QATTP's of disease: both delays and improvement
intent-to-treat population
  differences in the QATTP across treatment groups: no statistically significant differences

From US20030092757A1, “Favorable modulation of health-related quality of life and health-related quality-adjusted time-to-progression of disease in patients with prostate cancer” (priority 2001, published 2003)
